# Assay results from ChEMBL document CHEMBL3352134, “In silico and pharmacological screenings identify novel serine racemase inhibitors” (Bioorg Med Chem Lett, 2014).
# Key:
# Serine racemase [1] = target: T1, Serine racemase (Homo sapiens, UniProt Q9GZT4); experiment: Binding affinity to serine recemase (unknown origin)
# T1 sequence (Q9GZT4 whole entry): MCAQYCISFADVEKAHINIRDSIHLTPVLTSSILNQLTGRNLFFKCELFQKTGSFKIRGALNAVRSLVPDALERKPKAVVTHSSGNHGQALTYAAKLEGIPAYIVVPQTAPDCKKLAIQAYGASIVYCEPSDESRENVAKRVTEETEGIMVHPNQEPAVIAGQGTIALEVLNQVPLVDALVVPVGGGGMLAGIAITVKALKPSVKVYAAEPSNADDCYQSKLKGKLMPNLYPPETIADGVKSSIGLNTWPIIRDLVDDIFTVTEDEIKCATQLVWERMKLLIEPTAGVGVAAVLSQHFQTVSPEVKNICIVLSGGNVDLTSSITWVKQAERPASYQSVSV
# Serine racemase [2] = target: Serine racemase (Homo sapiens, UniProt Q9GZT4); experiment: Inhibition of full length human recombinant serine recemase C2DC6D mutant expressed in Escherichia coli BL21 (DE3) assessed as D-serine production after 10 mins by Saccharomyces cerevisiae Dsd1SC based D-serine detection assay
# [3] = target: T2, Serine racemase (Homo sapiens) (UniProt Q9GZT4); experiment: Inhibition of full length human recombinant serine recemase C2DC6D mutant expressed in Escherichia coli BL21 (DE3) assessed as D-serine production at 1 mM after 10 mins by Saccharomyces cerevisiae Dsd1SC based D-serine detection assay
# T2 sequence (whole entry): T1 sequence (Q9GZT4 whole entry)
SMILES,Ki (Serine racemase [1]) [µM],IC50 (Serine racemase [2]) [µM],inhibition [3] [%]
N[C@H](C(=O)O)[C@@H](O)C(=O)O,11,,
NCC(=O)O [GLYCINE],366,,
O=C(O)CC(=O)O [MALONIC ACID],33,1310,59
